“Also recorded” adds a separate entry of the source.
How the values were obtained:
[1] = tested on: Lin^−/CD34^+/CD38^−/CD123^+ cancer stem cells in KG1a cells; assay: Immunophenotypic quantification of the leukaemic stem cell compartment in KG1a cells; assay type: cell-based, human; settings: for low concentration at which the selective reduction of cancer stem cells was still observed / selectivity against cancer stem cells compared to the parent compound / proportion of cancer stem cells as compared to non-stem cancer cells after treatment: KG1a cells; for proportion of cancer stem cells as compared to non-stem cancer cells after treatment: 72 h; for selectivity for cancer stem cells as opposed to non-stem cancer cells (summary): summary statement of the description
Procedure: The respective abilities of NUC-1031 and gemcitabine to target CSCs were investigated in the AML cell line KG1a.
KG1a cells were cultured for 72 hours in the presence of a wide range of concentrations of each nucleoside analogue and their respective ProTides. Cells were then harvested and labelled with a cocktail of anti-lineage antibodies (PE-cy7), anti-CD34 (FITC), anti-CD38 (PE) and anti-CD123 (PERCP cy5). The sub-population expressing a leukaemic stem cell (LSC) phenotype were subsequently identified and were expressed as a percentage of all viable cells left in the culture. The percentages of stem cells remaining were then plotted on a dose-response graph and the proportion of cancer stem cells was compared across the various concentrations of ProTides and their respective parent compounds, in order to determine if they preferentially target cancer stem cells.
The data obtained in these experiments were evaluated using one way ANOVA. All data was confirmed as Gaussian or a Gaussian approximation using the omnibus K2 test. LD50 values were calculated from the non-linear regression and line of best-fit analysis of the sigmoidal dose-response curves. All statistical analyses were performed using Graphpad Prism 6.0 software (Graphpad Software Inc., San Diego, Calif.).

[2] = tested on: primary acute myeloid leukaemia (AML) blasts; assay: In vitro cytotoxicity assay (LD50) in primary acute myeloid leukaemia cells; assay type: cell-based, human; settings: for LD50: primary AML blasts, 48 h, concentration required to kill 50% of the tumour cells in culture; for potency as compared to the respective parent compound (summary): summary statement of the description
Procedure: ProTide compounds, as defined herein, and the comparator ProTide compound NUC-1031 were assayed for their cytotoxic effects on primary cultures of acute myeloid leukaemia (AML) blasts. LD50 values (the concentration required to kill 50% of the tumour cells in culture) were calculated in respect of the ProTide compounds of the invention, and the parent compounds from which they are derived. […] The LD50 values of the ProTide compounds as defined herein (and their parent compounds) were compared with the comparator ProTide NUC-1031 and its parent compound gemcitabine.
Bone marrow samples were collected in ethylenediaminetetraacetic acid (EDTA) from newly diagnosed, previously untreated, acute myeloid leukaemia (AML) patients. AML blasts were enriched by density gradient centrifugation using Histopaque (Sigma, Poole, UK) and were subsequently maintained in Roswell Park Memorial Institute medium (RPMI) supplemented with 10% foetal bovine serum (FBS). Cells were treated with ProTide compounds (either as encompassed by the present invention, or the comparator ProTide NUC-1031) or with the ProTides' parent compounds at a range of experimental concentrations, and incubated for 48 h. All cultures were maintained at 37° C. in a 5% CO2 humidified atmosphere.
Cells were harvested and labelled with CD34-fluorescein isothiocyanate (FITC) (BD Biosciences, Buckingham, UK) and then resuspended in 200 μl of binding buffer containing 4 μl of annexin V labelled with allophycocyanin (APC) (eBioscience Ltd, Hatfield, UK). Apoptosis was quantified in the CD34^+ AML cells using an Accuri C6 flow cytometer (Becton Dickinson, CA, USA). At least 10,000 events were acquired and data were subsequently analysed using FlowJo software (Tree Star Inc., Ashland, Oreg., USA). All LD50 values (concentration of drug required to kill 50% of cells) were derived from the dose-response curves.

C[C@H](NP(=O)(Oc1ccccc1)OC1C[C@H](n2cnc3c(N)nc(Cl)nc32)O[C@@H]1CO)C(=O)OCc1ccccc1 (some centres unmarked) [CPF-793]
low concentration at which the selective reduction of cancer stem cells was still observed [1]: approximately 6×10^−8 M | selectivity against cancer stem cells compared to the parent compound [1]: greater selectivity; also recorded: statistically significant | proportion of cancer stem cells as compared to non-stem cancer cells after treatment [1]: reduction in the proportion of cancer stem cells; also recorded: particularly striking | selectivity for cancer stem cells as opposed to non-stem cancer cells (summary) [1]: selectively target for cancer stem cells; also recorded: high selectivity for cancer stem cells

C[C@H](NP(=O)(OC[C@H]1O[C@@H](n2cnc3c(=S)[nH]cnc32)[C@@H](O)C1O)Oc1cccc2ccccc12)C(=O)OCc1ccccc1 (some centres unmarked) [CPF-761]
selectivity against cancer stem cells compared to the parent compound [1]: greater selectivity; also recorded: most selective; also recorded: increase in selectivity was statistically significant | proportion of cancer stem cells as compared to non-stem cancer cells after treatment [1]: reduction of the proportion of cancer stem cells | selectivity for cancer stem cells as opposed to non-stem cancer cells (summary) [1]: selectively target for cancer stem cells

CCOC(=O)[C@H](C)NP(=O)(OC[C@H]1O[C@@H](n2cnc3c(N)nc(F)nc32)[C@H](O)C1O)Oc1cccc2ccccc12 (some centres unmarked) [CPF-544]
selectivity against cancer stem cells compared to the parent compound [1]: comparable | proportion of cancer stem cells as compared to non-stem cancer cells after treatment [1]: significant decrease in the proportion of cancer stem cells | selectivity for cancer stem cells as opposed to non-stem cancer cells (summary) [1]: selectively target for cancer stem cells; also recorded: high selectivity for cancer stem cells

C[C@H](NP(=O)(OC[C@H]1O[C@@H](n2cnc3c(=S)[nH]cnc32)[C@@H](O)C1O)Oc1cccc2ccccc12)C(=O)OCC(C)(C)C (some centres unmarked) [CPF-762]
selectivity against cancer stem cells compared to the parent compound [1]: greater selectivity | proportion of cancer stem cells as compared to non-stem cancer cells after treatment [1]: reduction of the proportion of cancer stem cells | selectivity for cancer stem cells as opposed to non-stem cancer cells (summary) [1]: selectively target for cancer stem cells

Nc1nc(Cl)nc2c1ncn2[C@@H]1O[C@H](CO)[C@@H](O)[C@@H]1F [Clofarabine]
low concentration at which the selective reduction of cancer stem cells was still observed [1]: approximately 6×10^−8 M | proportion of cancer stem cells as compared to non-stem cancer cells after treatment [1]: reduction in the proportion of cancer stem cells

C[C@H](NP(=O)(OC[C@H]1O[C@@H](n2cnc3c(N)nc(Cl)nc32)[C@H](F)C1O)Oc1cccc2ccccc12)C(=O)OCC(C)(C)C (some centres unmarked) [CPF-720]
low concentration at which the selective reduction of cancer stem cells was still observed [1]: approximately 6×10^−8 M | proportion of cancer stem cells as compared to non-stem cancer cells after treatment [1]: reduction in the proportion of cancer stem cells | selectivity for cancer stem cells as opposed to non-stem cancer cells (summary) [1]: selectively target for cancer stem cells

C[C@H](NP(=O)(OC[C@H]1O[C@@H](n2cnc3c(=S)[nH]c(N)nc32)[C@@H](O)C1O)Oc1ccccc1)C(=O)OCc1ccccc1 (some centres unmarked) [CPF-782]
selectivity against cancer stem cells compared to the parent compound [1]: most selective; also recorded: statistically significant increases in selectivity at certain concentrations | proportion of cancer stem cells as compared to non-stem cancer cells after treatment [1]: strong reduction in the proportion of cancer stem cells | selectivity for cancer stem cells as opposed to non-stem cancer cells (summary) [1]: selectively target for cancer stem cells; also recorded: high selectivity for cancer stem cells | LD50 [2]: CPF 782 0.82 μM | potency as compared to the respective parent compound (summary) [2]: greater potency

C[C@H](NP(=O)(OC[C@H]1O[C@@H](n2cnc3c(=S)[nH]c(N)nc32)[C@@H](O)C1O)Oc1cccc2ccccc12)C(=O)OCc1ccccc1 (some centres unmarked) [CPF-775]
selectivity against cancer stem cells compared to the parent compound [1]: statistically significant increases in selectivity at certain concentrations | proportion of cancer stem cells as compared to non-stem cancer cells after treatment [1]: strong reduction in the proportion of cancer stem cells | selectivity for cancer stem cells as opposed to non-stem cancer cells (summary) [1]: selectively target for cancer stem cells; also recorded: high selectivity for cancer stem cells

C[C@H](NP(=O)(OC[C@H]1O[C@@H](n2cnc3c(N)nc(Cl)nc32)[C@H](F)C1O)Oc1ccccc1)C(=O)OCc1ccccc1 (some centres unmarked) [CPF-448]
low concentration at which the selective reduction of cancer stem cells was still observed [1]: approximately 6×10^−8 M | selectivity against cancer stem cells compared to the parent compound [1]: greater selectivity | proportion of cancer stem cells as compared to non-stem cancer cells after treatment [1]: reduction in the proportion of cancer stem cells | selectivity for cancer stem cells as opposed to non-stem cancer cells (summary) [1]: selectively target for cancer stem cells; also recorded: high selectivity for cancer stem cells

C[C@H](NP(=O)(OC[C@H]1O[C@@H](n2cnc3c(N)nc(F)nc32)[C@H](O)C1O)Oc1ccccc1)C(=O)OCc1ccccc1 (some centres unmarked) [CPF-682]
selectivity against cancer stem cells compared to the parent compound [1]: comparable | proportion of cancer stem cells as compared to non-stem cancer cells after treatment [1]: significant decrease in the proportion of cancer stem cells | selectivity for cancer stem cells as opposed to non-stem cancer cells (summary) [1]: selectively target for cancer stem cells; also recorded: high selectivity for cancer stem cells

OC[C@H]1O[C@@H](n2cnc3c(S)ncnc32)[C@H](O)[C@@H]1O [Thioinosine]
proportion of cancer stem cells as compared to non-stem cancer cells after treatment [1]: reduction of the proportion of cancer stem cells

C[C@H](NP(=O)(OC[C@H]1O[C@@H](n2cc(F)c(=O)[nH]c2=O)CC1O)Oc1cccc2ccccc12)C(=O)OCc1ccccc1 (single isomer, unassigned) [CPF-373 (Iso A)]
low concentration at which the selective reduction of cancer stem cells was still observed [1]: approximately 8×10^−8 M | proportion of cancer stem cells as compared to non-stem cancer cells after treatment [1]: reduction in the proportion of cancer stem cells | selectivity for cancer stem cells as opposed to non-stem cancer cells (summary) [1]: selectively target for cancer stem cells; also recorded: high selectivity for cancer stem cells | LD50 [2]: CPF 373 (Iso A) 0.052 μM | potency as compared to the respective parent compound (summary) [2]: greater potency

C[C@H](NP(=O)(OC[C@H]1O[C@@H](n2cc(F)c(=O)[nH]c2=O)CC1O)Oc1cccc2ccccc12)C(=O)OCc1ccccc1 (single isomer, unassigned) [CPF-373 (Iso B)]
low concentration at which the selective reduction of cancer stem cells was still observed [1]: approximately 8×10^−8 M | proportion of cancer stem cells as compared to non-stem cancer cells after treatment [1]: reduction in the proportion of cancer stem cells | selectivity for cancer stem cells as opposed to non-stem cancer cells (summary) [1]: selectively target for cancer stem cells; also recorded: high selectivity for cancer stem cells | LD50 [2]: CPF 373 (Iso B) 0.055 μM | potency as compared to the respective parent compound (summary) [2]: greater potency

Nc1ccn([C@@H]2O[C@H](CO)[C@@H](O)C2(F)F)c(=O)n1 [Gemcitabine]
LD50 [2]: Gemcitabine 1.4 μM

CCCCCOC(=O)[C@@H](C)NP(=O)(OC[C@H]1O[C@@H](n2cnc3c(N)nc(Cl)nc32)[C@H](F)C1O)Oc1cccc2ccccc12 (some centres unmarked) [CPF-727]
low concentration at which the selective reduction of cancer stem cells was still observed [1]: approximately 6×10^−8 M | proportion of cancer stem cells as compared to non-stem cancer cells after treatment [1]: reduction in the proportion of cancer stem cells | selectivity for cancer stem cells as opposed to non-stem cancer cells (summary) [1]: selectively target for cancer stem cells

C[C@H](NP(=O)(OC[C@H]1O[C@@H](n2cc(F)c(=O)[nH]c2=O)CC1O)Oc1cccc2ccccc12)C(=O)OCCC(C)(C)C (some centres unmarked) [CPF-585]
proportion of cancer stem cells as compared to non-stem cancer cells after treatment [1]: reduction in the proportion of cancer stem cells | selectivity for cancer stem cells as opposed to non-stem cancer cells (summary) [1]: selectively target for cancer stem cells | LD50 [2]: CPF 585 0.79 μM

C[C@H](NP(=O)(Oc1cccc2ccccc12)OC1C[C@H](n2cnc3c(N)nc(Cl)nc32)O[C@@H]1CO)C(=O)OCc1ccccc1 (some centres unmarked) [CPF-791]
selectivity against cancer stem cells compared to the parent compound [1]: greater selectivity | proportion of cancer stem cells as compared to non-stem cancer cells after treatment [1]: reduction in the proportion of cancer stem cells | selectivity for cancer stem cells as opposed to non-stem cancer cells (summary) [1]: selectively target for cancer stem cells

Nc1nc(Cl)nc2c1ncn2[C@H]1C[C@H](O)[C@@H](CO)O1 [Cladribine]
proportion of cancer stem cells as compared to non-stem cancer cells after treatment [1]: reduction in the proportion of cancer stem cells

C[C@H](NP(=O)(OC[C@H]1O[C@@H](n2cc(F)c(=O)[nH]c2=O)CC1O)Oc1cccc2ccccc12)C(=O)OCc1ccccc1 (some centres unmarked) [CPF-373 (mix)]
LD50 [2]: CPF 373 (mix) 0.053 μM

Reference: US11400107B2, “Cancer treatments” (NuCana plc, priority 2016, dated 2022)
